Results from patent publication US5696093A (CRC for Biopharmaceutical Research Pty Limited, priority 1994, dated 1997).
“Also recorded” adds a separate entry of the source. Where two headings read alike, the source gives them in different places. Where no end group is shown, it is not given here.

Assays:
[1] = tested on: internal maxillary artery; test: Local intra arterial injection, vascular resistance in the internal maxillary artery (Rma); type: in vivo; settings: dog; for effect on Rma, in words / rank order potency on a molar basis (reduction of Rma): local intra arterial injection; for vascular effect after pretreatment with adrenoceptor blockers and atropine: phentolamine, propranolol and atropine pretreatment
Experimental: Experiments were performed on twelve adult mixed breed dogs of both sexes weighing between 4 and 9 kg. These experiments were approved by the institutional animal care and ethics committee. The dogs were anaesthetised with pentobarbitone sodium (35 mg kg^-1 i.v.). The trachea was cannulated low in the neck and the animals were artifically ventilated. A catheter connected to a […] blood pressure transducer was placed in a femoral artery for systemic blood pressure monitoring. Another catheter was inserted in a femoral vein for administration of compounds and further doses of anaesthetic as required (0.5-1 ml of a 1-in-5 dilution of pentobarbitone). The left cervical vagus nerve was dissected high in the neck, the vagal sheath was removed and then the sympathetic nerve was separated from the vagal trunk. […] The left zygomatic arch was removed and the […] the sphenopalatine ganglion were exposed by a procedure similar to the one described by […] & Wilson (1973). Bipolar platinum electrodes connected to a Grass S 88 stimulator (Grass Instruments, Quincy, USA) were used for stimulation of the proximal portion of the cervical sympathetic nerve and the cut peripheral end of the parasympathetic nerve. The identification of cervical sympathetic nerve was confirmed by observing dilation of the pupil with its electrical stimulation. The left external carotid artery was […] up to the internal maxillary artery. The main arterial branches located beyond to the superficial temporal artery were ligated as described previously by Lacroix et al. (1988), a procedure which leaves the internal maxillary artery flow supplying only the nasal mucosa. The superficial temporal artery was cannulated for selective injection of agents into the main nasal arterial blood supply. The nasal arterial blood flow was recorded with a transonic flow probe (3SB454) placed around the internal maxillary artery and connected to a T206 ultrasonic blood flowmeter (Transonic System Inc., N.Y., U.S.A.). All parameters were continuously recorded on a Grass polygraph model 7C in all experiments. The animals were allowed a one hour intervention-free period following completion of surgery. Group 1 (n+8): […] The administration of saline alone had no measurable effect. An interval of 5 min was allowed between successive injections. Fifteen minutes after the completion of the ACh, VIP, PH1 and NA injections, parasympathetic nerve stimulations (5 V, 5 ms) were performed at continuous frequencies of 10, 20 and 30 Hz, each for 10 sec. Each stimulation was performed 3 min after the blood flow in the internal maxillary artery returned to base line from the preceding stimulation. Sympathetic nerve stimulation (15 V, 5 ms) was then performed continuously at 10 Hz for 3 min. Parasympathetic nerve stimulations were repeated five minutes, thirty minutes and then one hour after sympathetic nerve stimulation. This entire protocol was repeated after pretreatment with the α-adrenoceptor antagonist phentolamine (0.5 mg kg^-1 h^-1), the β-adrenoceptor antagonist propranolol (1 mg kg^-1) and the parasympathetic muscarinic receptor blocker atropine (0.5 mg kg^-1), all delivered by local intra arterial (i.a.) injection. […] Analysis of results: changes of the nasal arterial blood flow were expressed in terms of vascular resistance in the maxillary artery (Rma), obtained by dividing the driving mean arterial blood pressure in the femoral artery by the peak value of the blood flow volume rate in the maxillary artery. Before each experiment a zero flow in the maxillary artery was obtained by clamping the artery upstream to the transonic probe for 30 sec. The duration of the responses were given in second sand calculated from the end of the electrical stimulation until return to former basal values. All data are presented as mean ± standard error of the […]. Statistical differences were evaluated using one way ANOVA test.

[2] = biological target: T1, neuropeptide Y Y2 receptor (Homo sapiens, UniProt P49146); test: Competition with radiolabelled peptide YY for binding to SMS-KAN cells
T1 construct: endogenous in cells; host or cells: SMS-KAN human neuroblastoma cells (whole cells; gift of Dr Thue Schwartz)
T1 sequence (P49146 1-381): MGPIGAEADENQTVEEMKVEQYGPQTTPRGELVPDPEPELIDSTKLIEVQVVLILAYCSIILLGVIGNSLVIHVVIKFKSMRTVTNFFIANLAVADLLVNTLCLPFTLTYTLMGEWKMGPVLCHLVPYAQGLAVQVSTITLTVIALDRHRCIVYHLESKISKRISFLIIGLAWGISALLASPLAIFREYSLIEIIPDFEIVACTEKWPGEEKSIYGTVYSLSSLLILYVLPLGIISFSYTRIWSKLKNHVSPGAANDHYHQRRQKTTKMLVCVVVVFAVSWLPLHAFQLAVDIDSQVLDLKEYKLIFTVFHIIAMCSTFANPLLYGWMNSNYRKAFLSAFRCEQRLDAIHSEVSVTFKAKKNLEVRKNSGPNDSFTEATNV
Excerpt: (§1) All media and materials for tissue culture were obtained from Cytosystems (Castle Hill, NSW, Australia). Cells were harvested by treatment with 0.2% EDTA in phosphate buffered saline and immediately used in the binding assay described.

[3] = biological target: T2, prejunctional (neuropeptide Y Y2) receptor (Rattus norvegicus, UniProt Q9ERC0); test: Inhibition of cardiac vagal action in anaesthetised rats (prejunctional activity); type: in vivo; settings: for EC50 / inhibition of cardiac vagal action (prejunctional effect), in words: anaesthetised rats, i.v.; for EC50: log of the dose which evokes 50% of the maximum response, mean ± SEM, five rats
T2 construct: from tissue; host or cells: whole anaesthetised Wistar rat (cardiac vagal nerve endings)
T2 sequence (Q9ERC0 1-381): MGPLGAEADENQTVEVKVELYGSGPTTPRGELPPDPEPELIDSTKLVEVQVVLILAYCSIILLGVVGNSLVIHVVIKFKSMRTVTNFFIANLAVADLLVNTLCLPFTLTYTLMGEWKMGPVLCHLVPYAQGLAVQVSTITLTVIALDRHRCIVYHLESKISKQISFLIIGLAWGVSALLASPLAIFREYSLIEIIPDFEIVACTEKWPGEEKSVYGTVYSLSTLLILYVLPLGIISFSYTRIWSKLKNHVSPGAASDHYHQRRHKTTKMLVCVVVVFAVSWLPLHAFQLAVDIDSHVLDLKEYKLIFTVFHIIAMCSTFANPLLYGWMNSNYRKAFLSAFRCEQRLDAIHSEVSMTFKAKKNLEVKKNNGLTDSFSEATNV
Experimental: Experiments were carried out on adult rats (Wistar) of both sexes (250-350 g), anaesthetised with sodium pentobarbitone (Nembutal, Boehringer-Ingleheim; 60 mg/kg, i.p.). […] The femoral vein was cannulated for administration of peptides and further doses of anaesthetic. The left femoral artery was cannulated to record arterial pressure. Both vagus nerves were cut. […] The electrocardiogram was measured using needle electrodes and monitored on one channel of an osciloscope. Pulse interval (the period between successive beats of the heart) was recorded beat-by-beat by triggering from ECG. Pulse interval and arterial pressure were recorded on the pen recorder.
Dose-response curves were constructed from group data for all rats. Because of the long time-course of action of the peptides tested, not all peptides were given to each rat.

[4] = tested on: dog nasal mucosa; test: Parasympathetic nerve-evoked nasal vasodilatation in anaesthetised dogs; type: in vivo; settings: for parasympathetic vasodilatation after administration, in words: i.v.
[5] = tested on: endogenous ATP receptor; test: Calcium response to ATP in Y1 receptor-transfected CHO cells; type: cell-based, Chinese Hamster; settings: 1 μM ATP
Experimental: Cells were suspended in loading media (Modified RPMI, 10 mM Hepes, 1% newborn fetal calf serum) and incubated in a spinner flask at 37° C., for 2.5 hours at 1×10^6 cells/ml. Cells were then treated with […] Fura-2 AM for 30 minutes at 37° C., washed twice with loading media and resuspended at 5×10^6 cells/ml. Immediately before use in fluorescence spectroscopy, cells were recovered by centrifugation at 1000 rpm and resuspended at 1×10^6 cells/ml in a modified Krebs buffer (135 mM NaCl, 4.7 mM KCl; 1.2 /nM MgSO4, 1.2 mM KH2 PO4, 5 mM NaHCO3, 1 mM CaCl2, 2.8 mM glucose, and 10 mM Hepes, pH 7.4) containing 1 mM sulphinpyrazone. Fluorescence recordings were made on an Hitachi fluorescence spectrometer (F4010) at 340 nm (excitation) and 505 nm (emission) over 10 minutes with slit widths of 5 nm and a response time of 2 seconds. Intracellular calcium levels were quantitated using equations described (Grynkiewicz et al., 1985).

[6] = biological target: T2, prejunctional (neuropeptide Y Y2) receptor; settings: Potter et al., 1989; cited from earlier work
[7] = biological target: T3, postjunctional (neuropeptide Y Y1) receptor (Rattus norvegicus, UniProt P21555); test: Pressor action (arterial blood pressure) in anaesthetised rats (postjunctional activity); type: in vivo; settings: i.v.
T3 construct: from tissue; host or cells: whole anaesthetised Wistar rat (vasculature)
T3 sequence (P21555 1-382): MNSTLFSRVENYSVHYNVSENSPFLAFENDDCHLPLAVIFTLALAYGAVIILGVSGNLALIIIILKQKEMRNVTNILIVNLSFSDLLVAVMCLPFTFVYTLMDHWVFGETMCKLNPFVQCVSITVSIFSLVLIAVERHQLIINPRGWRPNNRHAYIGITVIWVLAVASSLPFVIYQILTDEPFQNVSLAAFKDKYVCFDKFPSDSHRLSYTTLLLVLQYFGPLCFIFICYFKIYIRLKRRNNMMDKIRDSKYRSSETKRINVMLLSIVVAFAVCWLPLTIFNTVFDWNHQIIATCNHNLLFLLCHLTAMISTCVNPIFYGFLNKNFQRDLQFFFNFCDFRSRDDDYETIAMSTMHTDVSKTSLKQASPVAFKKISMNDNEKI
Experimental: Experiments were carried out on adult rats (Wistar) of both sexes (250-350 g), anaesthetised with sodium pentobarbitone (Nembutal, Boehringer-Ingleheim; 60 mg/kg, i.p.). The trachea was cannulated and the animal artifically ventilated. The femoral vein was cannulated for administration of peptides and further doses of anaesthetic. The left femoral artery was cannulated to record arterial pressure. Both vagus nerves were cut. […] The frequency was chosen to increase pulse interval by approximately 100 ms, a submaximal effect on this variable. The electrocardiogram was measured using needle electrodes and monitored on one channel of an osciloscope. Pulse interval (the period between successive beats of the heart) was recorded beat-by-beat by triggering from ECG. Pulse interval and arterial pressure were recorded on the pen recorder. […]
As an indication of prejunctional activity two parameters were measured; the maximum percent inhibition of the increase in pulse interval evoked by stimulation of the vagus nerve following injection of peptide (Δ pulse interval, % inhibition) and the time to half recovery of this effect (T50). For pressor action, an indicator of postjunctional activity, two parameters were also measured; the peak pressor response following injection of peptide (Δ blood pressure) and the duration of the increase in blood pressure (Duration). […]

[8] = biological target: T4, neuropeptide Y Y1 receptor (Homo sapiens, UniProt P25929); test: Competition with radiolabelled peptide YY for binding to SK-N-MC cells
T4 construct: host or cells: SK-N-MC human neuroblastoma cells (whole cells)
T4 sequence (P25929 1-384): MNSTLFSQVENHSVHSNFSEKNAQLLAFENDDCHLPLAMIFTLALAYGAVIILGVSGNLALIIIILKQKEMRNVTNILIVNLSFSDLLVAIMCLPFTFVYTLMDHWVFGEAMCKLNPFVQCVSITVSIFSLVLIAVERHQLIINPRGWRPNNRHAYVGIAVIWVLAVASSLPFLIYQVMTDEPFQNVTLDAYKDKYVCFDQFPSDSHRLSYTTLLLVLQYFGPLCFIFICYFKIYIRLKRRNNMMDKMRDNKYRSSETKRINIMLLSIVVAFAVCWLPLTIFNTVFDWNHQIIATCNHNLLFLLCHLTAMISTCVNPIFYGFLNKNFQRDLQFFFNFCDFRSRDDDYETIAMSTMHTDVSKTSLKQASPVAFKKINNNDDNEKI
Excerpt: as §1

[9] = tested on: internal maxillary artery; test: Arterial blood pressure and nasal arterial blood flow in anaesthetised dogs after i.v. peptide; type: in vivo; settings: dog, 8 nmol kg^-1 i.v.
Experimental: Experiments were performed on twelve adult mixed breed dogs of both sexes weighing between 4 and 9 kg. These experiments were approved by the institutional animal care and ethics committee. The dogs were anaesthetised with pentobarbitone sodium (35 mg kg^-1 i.v.). The trachea was cannulated low in the neck and the animals were artifically ventilated. A catheter connected to a Statham P23AC blood pressure transducer was placed in a femoral artery for systemic blood pressure monitoring. Another catheter was inserted in a femoral vein for administration of compounds and further doses of anaesthetic as required (0.5-1 ml of a 1-in-5 dilution of pentobarbitone). The left cervical vagus nerve was dissected high in the neck, the vagal sheath was removed and then the sympathetic nerve was separated from the vagal trunk. […] Bipolar platinum electrodes connected to a Grass S 88 stimulator (Grass Instruments, Quincy, USA) were used for stimulation of the proximal portion of the cervical sympathetic nerve and the cut peripheral end of the parasympathetic nerve. The identification of cervical sympathetic nerve was confirmed by observing dilation of the pupil with its electrical stimulation. The left external carotid artery was disserted up to the internal maxillary artery. […] The superficial temporal artery was cannulated for selective injection of agents into the main nasal arterial blood supply. The nasal arterial blood flow was recorded with a transonic flow probe (3SB454) placed around the internal maxillary artery and connected to a T206 ultrasonic blood flowmeter (Transonic System Inc., N.Y., U.S.A.). All parameters were continuously recorded on a Grass polygraph model 7C in all experiments. The animals were allowed a one hour intervention-free period following completion of surgery.
Group 1 (n+8): Solutions of ACh (5.5×10^-11 to 5.5×10^-8 mol). VIP (3×10^-11 to 3×10^-9 mol), PH1 (3.3×10^-11 to 1.6×10^-8 mol) and NA (6×10^-11 mol to 6×10^-8 mol) in 1 ml of saline, were infused into the superficial temporal artery over a period of 15 sec. […]

NC[C@H](O)c1ccc(O)c(O)c1 [NA]
effect on Rma, in words [1]: dose-dependant increases in Rma
vascular effect after pretreatment with adrenoceptor blockers and atropine [1]: virtually abolished

CC(=O)OCC[N+](C)(C)C.[Cl-] [ACh, acetylcholine chloride]
effect on Rma, in words [1]: dose-dependant reductions of the Rma
rank order potency on a molar basis (reduction of Rma) [1]: ACh>VIP>PHI
vascular effect after pretreatment with adrenoceptor blockers and atropine [1]: virtually abolished

peptide histidine isoleucine [PHI]
effect on Rma, in words [1]: dose-dependant reductions of the Rma
rank order potency on a molar basis (reduction of Rma) [1]: ACh>VIP>PHI
vascular effect after pretreatment with adrenoceptor blockers and atropine [1]: remained intact

Ac-LRHYLNLLTRQRY-NH2 [N-acetyl [Leu^28, Leu^31] neuropeptide Y-(24-36)]
IC50 [2]: 3.9 ± 0.4 nM
EC50 ([3]; read-out: EC50 for T50 (time to half recovery of vagal inhibition) (converted)): 2.51 nM
EC50 ([3]; read-out: EC50 for Δ pulse interval (converted)): 3.16 nM

C[N+](C)(C)CC[N+]1(C)Cc2c(Cl)c(Cl)c(Cl)c(Cl)c2C1 [chlorisondamine]
vasodilatation evoked by vidian nerve stimulation after ganglion blocker ([4]; 2 mg kg^-1, i.v.): inhibition of vasodilatation

Nc1ncnc2c1ncn2[C@@H]1O[C@H](COP(=O)(O)OP(=O)(O)OP(=O)(O)O)[C@@H](O)[C@H]1O [ATP]
calcium response to ATP after addition of N-acetyl [Leu28, Leu31] neuropeptide Y-(24-36) [5]: 33.8 nM
calcium response to ATP before addition of N-acetyl [Leu28, Leu31] neuropeptide Y-(24-36) [5]: 46.3 nM

neuropeptide Y-(13-32)
prejunctional activity in vivo, earlier study [6]: inactive in vivo

LRHYLNLLTRQRY-NH2 [[Leu^28, Leu^31] neuropeptide Y-(24-36)]
IC50 [2]: 12.7 ± 1.2 nM
duration of transient response (T50) ([3]; Table 1 footnote, no EC50 calculated): < 2 min
inhibition of cardiac vagal action (prejunctional effect), in words [3]: significant inhibitory or prejunctional actions but these effects are transient
inhibition of cardiac vagal action (prejunctional effect), in words ([3]; listed as [Leu^27, Leu^31 ] neuropeptide Y-(24-36)): significant inhibitory effects on cardiac vagal action
pressor effect (Δ blood pressure), in words [7]: did not significantly increase blood pressure at any dose tested
binding to Y1 receptor on SK-N-MC cells, in words [8]: neither N-acetyl [Leu^28, Leu^31 ] neuropeptide Y-(24-36) or [Leu^28, Leu^31 ] neuropeptide Y-(24-36) shoed significant binding

vasoactive intestinal polypeptide [VIP]
effect on Rma, in words [1]: dose-dependant reductions of the Rma
rank order potency on a molar basis (reduction of Rma) [1]: ACh>VIP>PHI
vascular effect after pretreatment with adrenoceptor blockers and atropine [1]: remained intact

[Leu^31, Pro^34 ] neuropeptide Y [[Leu^31, Pro^34] NPY]
parasympathetic vasodilatation after administration, in words ([4]; Y1 agonist 8 nmol kg^-1, Y2 agonist 20 nmol kg^-1): no influence on the parasympathetic nerve-evoked vasodilatation; also recorded: no influence on the subsequent parasympathetic vasodilatation
parasympathetic vasodilatation after administration, in words ([4]; Y1 agonist 8 nmol kg^-1, Y2 agonist 20 nmol kg^-1, Pro^31 ] NPY): not modified
duration of the blood pressure increase [9]: more than 7 min
reduction of blood flow in the internal maxillary artery (nasal mucosa blood flow) [9]: ~20%
increase in arterial blood pressure ([9]; after phentolamine, propranolol and atropine): 23±2.8 mmHg
